Experimental data taken from US7732401B2, “Inhibitor of TGF-β activation reaction” (Riken, priority 2007, dated 2010).
Entries after “also recorded” stand apart in the source; their conditions may differ. Where no end group is shown, it is not given here.

What was measured:
plasma kallikrein = target: T1, plasma kallikrein (Homo sapiens, UniProt P03952); assay: Cleavage of recombinant human LAP by plasma kallikrein, Western blot semi-quantitative analysis; format: biochemical; conditions: Example 3, peptide 2.5 mg/ml, 37° C., 40 minutes, FIG. 6
T1 construct: purchased SIGMA
T1 sequence (P03952 20-638, species assumed): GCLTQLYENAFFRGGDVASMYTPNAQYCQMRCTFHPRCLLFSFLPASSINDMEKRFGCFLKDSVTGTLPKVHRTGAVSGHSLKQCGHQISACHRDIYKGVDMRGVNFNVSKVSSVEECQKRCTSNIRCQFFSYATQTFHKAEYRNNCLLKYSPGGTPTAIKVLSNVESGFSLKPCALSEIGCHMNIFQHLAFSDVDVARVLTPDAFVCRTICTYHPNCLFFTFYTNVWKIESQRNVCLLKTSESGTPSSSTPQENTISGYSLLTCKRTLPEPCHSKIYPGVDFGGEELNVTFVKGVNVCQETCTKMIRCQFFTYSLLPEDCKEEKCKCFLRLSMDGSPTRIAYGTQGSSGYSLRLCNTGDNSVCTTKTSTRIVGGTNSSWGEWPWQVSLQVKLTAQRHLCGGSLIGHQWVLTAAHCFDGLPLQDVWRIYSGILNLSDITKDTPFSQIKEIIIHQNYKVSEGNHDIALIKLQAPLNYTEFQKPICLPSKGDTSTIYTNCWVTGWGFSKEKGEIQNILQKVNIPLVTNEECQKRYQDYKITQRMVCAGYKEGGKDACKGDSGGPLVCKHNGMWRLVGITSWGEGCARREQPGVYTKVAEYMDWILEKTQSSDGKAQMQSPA
Experimental: When 2 μg of recombinant human LAP R & D) (final concentration: 66 μg/ml) was incubated with plasma kallikrein (SIGMA; final concentration of 20 μg/ml), QP peptide, QPA peptide, T200 peptide, and QPQ peptide (SEQ ID NO: 4) were added thereto at a final concentration of 2.5 mg/ml, followed by incubation at 37° C. for 40 minutes. Thereafter, electrophoresis (room temperature, 27 mA, 50 minutes) was carried out using 13.5% polyacrylamide gel, so as to separate LAP (molecular weight: 41 kDa), a LAP degradation product (molecular weight: 38 kDa), and BSA (final concentration: 0.3 mg/ml; molecular weight: […]) used as an additive. Each separated protein or decomposed product was transferred onto a PVDF membrane by using a semi-dry transferring apparatus. According to the method of Akita et al. (Gastroenterology 123; 352-364, 2002), the membrane was then incubated first with a mouse anti-LAP monoclonal antibody (R & D) at a final concentration of 5 μg/ml or a mouse anti-L59 cleavage section-recognizing monoclonal antibody (homemade; International Publication WO2005/023870) at a final concentration of 20 μg/ml, at room temperature for 60 minutes, and then with a horseradish peroxidase-conjugated goat anti-mouse second antibody (Jackson ImmunoResearch Laboratories) at a final concentration of 1 μg/ml at room temperature for 60 minutes. Bands were then developed using an ECL plus reagent (GE Healthcare), so as to carry out the semi-quantitative analysis of the influence of each peptide on the attenuation of LAP band and the generation of LAP degradation product (FIG. 6).

[1] = system: endotoxin (LPS)-preadministered partially-hepatectomized mice; assay: LPS-preadministered partially-hepatectomized mice model for impaired liver regeneration, PCNA staining; format: in vivo, mouse; conditions: Example 5, 200 μg/head i.v., 8 times; for percentage of PCNA positive cells: 48 hours after PH, FIG. 10; for improvement of impaired liver regeneration caused by preadministration of LPS: PCNA staining, FIG. 9
Experimental: For the experiment, 26 five-week-old male C3H/HeN mice were used. After completion of quarantine and environmental acclimatization, the mice were divided into the following 5 groups according to the body weight of each mouse on the day of grouping. These include, a group to which saline was preadministered and saline was then administered (G1: n=6); a group to which LPS was preadministered and saline was then administered (G2: n=6); a group to which LPS was preadministered and QP peptide was then administered (G3: n=4); a group to which LPS was preadministered and QPA peptide was then administered (G4: n=4); and a group to which LPS was preadministered and T200 peptide was then administered (G5: n=6) (Table 2).
After starting the test, 7 μg of LPS (saline in the case of G1) was intraperitoneally administered. Forty-eight hours later, partial hepatectomy was carried out on all the mice. Another forty-eight hours later, all the surviving mice were subjected to an autopsy. In the autopsy, blood was collected. Thereafter, 1 to 3 mice from each group were subjected to systemic perfusion with 4% paraformaldehyde (PFA), and the liver was then excised. All the excised lobes were embedded in an embedding agent “Tissue Mount” in a frozen state. On the other hand, the remaining 1 to 3 mice from each group were not subjected to systemic perfusion, and a portion of the liver was fixed with formalin, and the remaining portion was collected to be used as a frozen sample (used for mRNA and for protein quantitation). The organ that had been fixed with formalin was processed into a block, and it was then preserved together with the frozen sample in a deep freezer at −80° C.
Preparation method: A small amount of saline was added to one vial container that contained 5 mg of LPS, and it was then dissolved therein. Subsequently, the resultant solution was transferred into another container, and saline was then gradually added thereto to a total amount of 5 mL. The thus obtained solution was defined as a 1 μg/μL solution. 350 μL was collected from the obtained solution by precise weighing, and it was then added to a container that contained 4.65 mL of a sterilized normal saline solution (solvent). Thereafter, the mixed solution was filtrated and sterilized using a 0.22-μm filter, and the resultant was used as a sample to be administered. 7.2 LPS Administration Method Dose: 7 μg/head Administration route: intraperitoneal administration Administration volume: 0.1 mL/head Administration number: once (single administration) Administration timing: 48 hours before partial hepatectomy Target animal: G2 to G5 (To G1, saline was administered.) 8. Administration of Test Substance 8.1 Preparation of Peptide-Administering Sample Preparation frequency: once Preparation method: A peptide was dissolved in saline to a concentration of 2 mg/ml, and the resultant was used as a sample to be administered. Preservation method: The sample was preserved in a refrigerator before use. (The temperature was set at 4° C.) 8.2 Peptide Administration Method Dose: 200 μg/head Administration route: intravenous administration Administration volume: 0.11 mL/head Administration timing: 50, 38, 24, 14 and 2 hours before, and 10, 24 and 34 after partial hepatectomy Number of administration: twice/day, for 4 days (in principle, at 9:00 and at 19:00), 8 times in total Target animal: […] (To G1 and G2, saline was administered.) 9. Partial Hepatectomy (⅔ Partial Hepatectomy; PH) 9.1 Treating Method
Using a rotary microtome (Leica), a hepatic tissue section with a thickness of 5 μm was prepared from the embedded hepatic tissues. A proliferating cell nuclear antigen (PCNA; a proliferating cell marker) was stained according to the previously reported method (Greenwell A. et al., Cancer Lett 1991; 59: 251-256) using a Histofine kit (Nichirei Corporation). […]

TGF-β1 = assay: Amount of TGF-β1 in hepatic tissues of LPS-preadministered partially-hepatectomized mice (ELISA); format: in vivo, mouse; conditions: 200 μg/head i.v.; for Hepatic TGF-β1 Contents: Table 3
Experimental: A liver extract was prepared from approximately 100 mg of the hepatic tissues prepared for the use in protein quantitation in 11.2 above, according to the method of Okuno M. et al. (Okuno M. et al., Gastroenterology 2001; 120: 1784-1800). The amount of TGF-β1 in the extract was quantitated using an ELISA kit manufactured by PROMEGA. The quantitated TGF-β1 amount was presented as a pg/mg of protein.
A liver extract was prepared from approximately 30 mg of the hepatic tissues prepared for the use in protein quantitation in 11.2 above, according to the method of Okuno M. et al. (Okuno M. et al., Gastroenterology 2001; 120: 1784-1800). The amount of TGF-β1 in the extract was determined using an ELISA kit manufactured by PROMEGA. The amount of TGF-β1 was presented as a pg/mg protein of the sample. Other conditions were the same as those described in Example 2.

[2] = system: endotoxin (LPS)-preadministered partially-hepatectomized mice; assay: LPS-preadministered partially-hepatectomized mice model for impaired liver regeneration, PCNA staining; format: in vivo, mouse; conditions: Example 2, 200 μg/head i.v., 8 times; for improvement of impaired liver regeneration due to preadministration of LPS: PCNA staining, FIG. 3 and 4

Row | Substance | inhibition of LAP cleavage reaction (attenuation of LAP band, generation of LAP degradation product) (plasma kallikrein) | percentage of PCNA positive cells [1] [%] | improvement of impaired liver regeneration caused by preadministration of LPS [1] | hepatic contents of TGF-β1, times higher than the value of the control group (TGF-β1; Example 2, LPS + PH) | Hepatic TGF-β1 Contents (TGF-β1; Example 2, LPS + PH) [pg/mg protein] | hepatic contents of TGF-β1, times higher than the value of the control group (TGF-β1; Example 5, LPS + PH, FIG. 11) | improvement of impaired liver regeneration due to preadministration of LPS [2] | improvement of impaired liver regeneration due to preadministration of LPS ([2]; listed as P200 peptide) | percentage of PCNA positive cells ([2]; 48 hours after PH, FIG. 4) [%]
1 | TGVVRQWLSRG [T200 peptide, reference compound] | only a weak inhibitory effect | 45 | did not exhibit such an improving effect | approximately 3 times | 20 ± 26 | 3.1 times | did not exhibit such an improving effect | did not exhibited any such improving effects | –
2 | N-52QILSAAAAASP62-C (QILSAAALASP) [QPA peptide, mutant of QP peptide with Lys56, Leu57, Arg58 and Leu59 substituted with Ala] | only a weak inhibitory effect | 70 | significantly improved | approximately 1.4 times | 10 ± 11 | ~0.7 times | significantly improved | – | 47
3 | N-52QILSQQQQASP62-C [QPQ peptide, mutant of QP peptide with Lys56, Leu57, Arg58 and Leu59 substituted with Gln] | more strongly than the QP peptide | 64 | significantly improved | – | – | approximately 1.6 times | – | – | –
4 | QILSKLRLASP [QP peptide] | significantly inhibited | 66 | significantly improved | – | – | approximately 1.6 times | significantly improved; also recorded: completely improved | – | –
